What was measured:
[1] = target: T1, heteromer ASIC2b+3 (Rattus norvegicus, UniProt O35240+Q62962); conditions: cited from earlier work
T1 sequence (Q62962 1-563 isoform Q62962-2): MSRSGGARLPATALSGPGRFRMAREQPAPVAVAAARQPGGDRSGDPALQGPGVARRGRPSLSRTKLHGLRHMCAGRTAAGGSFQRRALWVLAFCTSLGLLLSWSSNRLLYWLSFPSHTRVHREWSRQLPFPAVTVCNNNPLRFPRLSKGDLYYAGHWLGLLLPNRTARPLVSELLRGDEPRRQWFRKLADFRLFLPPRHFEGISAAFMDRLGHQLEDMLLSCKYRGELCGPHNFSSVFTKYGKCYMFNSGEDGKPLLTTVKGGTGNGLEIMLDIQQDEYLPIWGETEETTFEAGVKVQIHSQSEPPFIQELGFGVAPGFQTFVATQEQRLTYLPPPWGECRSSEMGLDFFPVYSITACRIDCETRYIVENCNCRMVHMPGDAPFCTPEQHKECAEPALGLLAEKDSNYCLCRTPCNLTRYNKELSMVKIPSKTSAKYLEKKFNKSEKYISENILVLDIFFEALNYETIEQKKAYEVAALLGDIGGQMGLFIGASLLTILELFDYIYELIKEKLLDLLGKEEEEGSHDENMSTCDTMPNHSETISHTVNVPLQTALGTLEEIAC
T1 sequence (O35240 1-533): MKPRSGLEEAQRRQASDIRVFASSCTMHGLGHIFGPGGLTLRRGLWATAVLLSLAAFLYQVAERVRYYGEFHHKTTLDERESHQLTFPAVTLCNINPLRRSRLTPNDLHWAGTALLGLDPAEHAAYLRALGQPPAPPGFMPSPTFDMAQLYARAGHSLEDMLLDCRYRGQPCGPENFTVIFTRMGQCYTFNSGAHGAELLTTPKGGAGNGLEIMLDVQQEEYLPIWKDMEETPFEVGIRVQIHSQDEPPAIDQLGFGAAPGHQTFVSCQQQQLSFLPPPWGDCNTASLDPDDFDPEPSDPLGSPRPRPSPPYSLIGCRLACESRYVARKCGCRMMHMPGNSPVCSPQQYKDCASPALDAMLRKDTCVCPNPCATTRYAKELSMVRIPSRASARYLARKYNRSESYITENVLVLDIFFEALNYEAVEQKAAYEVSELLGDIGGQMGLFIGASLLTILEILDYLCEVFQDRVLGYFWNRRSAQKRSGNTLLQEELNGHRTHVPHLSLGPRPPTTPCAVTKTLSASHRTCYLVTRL

[2] = system: ASIC type current of cutaneous neurons of the spinal ganglia; assay: Whole cell patch clamp of native ASIC currents in cutaneous neurons of the spinal ganglia; type: cell-based, rat; conditions: pH 6.6; FIG. 1C
Experimental: The neurons of the dorsal root ganglion (spinal ganglia or DRG) innervating the skin were labelled by subcutaneous injections of 5×1 μl of Dil fluorescent dye (5% DMSO, Molecular Probes) in the dorsal side of the rats' hind paws. The dye was injected two weeks before the rats were sacrificed in order to prepare a primary culture of dorsal root ganglion.
The lumbar dorsal root ganglia L3-L6 of Wistar rats (8-11 weeks) were dissected bilaterally and separated enzymatically with 0.1% collagenase. The cells were subsequently plated on 35 mm Petri dishes covered with collagen and cultured at 37° C. (95% air/5% CO2) in DMEM medium containing 5% of foetal calf serum. The electrophysiological experiments were performed 1 to 8 days after seeding.
The whole cell configuration of the patch clamp method was used ([ref. 48]) in order to measure the membrane currents (imposed voltage) or the membrane potentials (imposed current). The recordings were performed at ambient temperature using an RK-400 amplifier (Bio-Logic Science Instruments) with a 3 kHz low-pass filter (Krohn-Hite). The data were sampled at 10 kHz, digitised using a Digidata 1322A A-D/D-A converter (Axon Instruments) and recorded on a hard disk using pClamp software (version 9.2.0.11, Axon Instruments). The recording probes (1-4 MOhms) contained (in mM): 135 KCl, 2.5 Na2-ATP, 2 MgCl2, 2.1 CaCl2, 5 EGTA, 10 HEPES (pH 7.25 with KOH). Various different buffers and drugs of interest were added to the transfected cells considered individually using an internally developed microinfusion system controlled by microelectrovalves (Sirai, Italy) allowing rapid changes of solution. The control bath solution contained (in mM): 145 NaCl, 5 KCl, 2 MgCl2, 2 CaCl2, 10 HEPES (pH 7.4 with NaOH). The MES medium was used instead of the HEPES medium in order to buffer the solution at a pH ranging from 6 to 5, and the ASIC currents were induced by rapid changes of a control solution at pH 7.4 to an acid test solution using the microinfusion system. For the experiments conducted on the DRG neurons, glucose (10 mM) was added to the control bath solution. Hypertonic conditions were obtained by adding mannitol or sucrose to the external bath solutions, as indicated in the text.

[3] = target: T2, ASIC3 (Rattus norvegicus, UniProt O35240); conditions: cited from earlier work
T2 sequence (O35240 1-533): T1 sequence (O35240 1-533)

[4] = system: thermal hyperalgesia induced by CFA; assay: Inflammation-induced (CFA) thermal hyperalgesia in rats, hotplate at 50° C.; type: in vivo, rat
Experimental: Sensitivity to heat of adult male Wistar rats (Charles River, France) was tested by measuring the time taken by the animal to retract one of its hind paws when placed on a hotplate at 50° C. (Bioseb, France), before and after induction of inflammation by subcutaneous injection of a solution of Freund's complete adjuvant (CFA, Sigma-Aldrich, France). The rats were acclimatised to the experimentation room for at least 30 minutes and each measurement was performed in duplicate. An initial measurement was performed before induction of inflammation. The rats were subsequently anaesthetised (isofluorane) while 150 μl of CFA diluted 1:1 with a saline solution (0.9% NaCl) containing either toxins (PcTx1 or APETx2, 120 nM and 20 μM, respectively) or the vehicle was injected (26G needle mounted on a 1 ml syringe) subcutaneously into the plantar side of one of the hind paws. The time taken by the animal to lift the injected hind paw was subsequently measured at 50° C., 2, 4 and 24 hours after the injection of CFA.
ASIC3 channel-specific iRNA (no. 1121; CTACACGCTATGCCAAGGA, SEQ ID NO: 1) and its control (no. 1121S; GCTCACACTACGCAGAGAT, SEQ ID NO: 2) were designed in the laboratory and were synthesised by MWG Biotech Company (Germany). The ASIC3-specific iRNA was validated by quantification of the messenger RNA levels by quantitative RT-PCR for each ASIC channel and for the TRPV1 channel, following intrathecal injections into the lumbar region of the spinal cord of rats, at a rate of one injection per day for 3 consecutive days, before the animal was sacrificed. The same procedure was followed before induction of inflammation by CFA. Each injection was 10 μl in volume, containing 2 μg of iRNA mixed with the transfection agent i-Fect (Neuromics) at a ratio of 1 to 4.

Which “effect on the current of the heteromer ASIC2b+3” value [1] does the source give for “peptide of 42 amino acids (SEQ ID NO: 3), three disulphide bonds, from sea anemone Anthopleura elegantissima; blocks ASIC3 [APETx2]” here?
Its value is “inhibits”.

What about the “sensitivity of the native ASIC currents to the toxin” value [2] of the same substance?
The value was “partial sensitivity”.

And the “effect on the ASIC3 sustained current” value ([3]; sustained current)?
The value was “without affecting”.

What about the IC50 ([3]; transient current, reversible block, read-out: IC50 for inhibition of the ASIC3 transient current) of the same substance?
The IC50 was 63 nM.

And the “development of thermal hyperalgesia” value ([4]; toxin concomitantly injected with CFA (APETx2 20 μM, PcTx1 120 nM), four hours after CFA)?
The value was “does not develop”.

What about the “thermal hyperalgesia behaviour versus vehicle control animals” value ([4]; twenty hours after the injection of CFA, data not represented) of the same substance?
The value was “do not display any behaviour different”.

From patent US8357659B2, “Method of treating pain or itching with APETx2 peptide toxin” (priority 2008, dated 2013)
